From patent publication US9408891B2, “Methods of using gelsolin to treat or prevent bacterial sepsis” (priority 2003, dated 2016)
“Also recorded” adds a separate entry of the source.

Test system: rat primary astrocytes
Assay: LPS-induced actin cytoskeleton disassembly, phalloidin staining, astrocytes
Type: cell-based
Details: LPS 10 μg/ml, 10 min
Excerpt: In light of the findings in the previous Examples, and using the materials prepared in above, the effect of the gelsolin binding by LPS was studied to determine the effect on cellular responses in vitro. Cell cultures of human aortic endothelial cells (HAEC) and rat primary astrocytes were used to evaluate the effect of LPS on actin. Both of these cell types have mCD14 (membrane bound C14) and TLR LPS receptors (Faure, et al., J. Biol. Chem. 275:11058-11063 (2000); Bsibsi, et al., J. Neuropathol. Exp. Neurol. 61:1013-1021 (2002); Bowman, et al., Glia 43:281-291 (2003)).
Rat primary astrocytes were obtained from prenatal rats and maintained for 14 days in culture before use. Embryos (E17-E19) were removed by caesarian section from a Sprague-Dawley rat and the hippocampi were surgically removed. The tissue was digested in trypsin/DNAse at 37° C., centrifuged (1000×5 min) and filtered to derive suspensions from each pup. […]
HAECs and astrocytes cultures were incubated for 10 minutes in medium containing 10 μg/ml LPS alone, or LPS that had been pre-incubated with 0.16 mg/ml of human gelsolin. […] Location of transcription factor nuclear factor-kappaB (NF-κB) was observed using a monoclonal antibody to NF-κB (Molecular Probes), and cell nuclei were detected by counter-staining with 4′, 6-diamidino-2-phenylindole dihydrochloride (DAPI) (Sigma).

lipopolysaccharide [LPS]
effect of LPS alone on actin cytoskeleton: rapidly induced the disassembly of the actin cytoskeleton; also recorded: disassembly of the actin cytoskeleton was readily induced; also recorded: rapidly induced disassembly of the actin cytoskeleton
